The NIST ThermoML archive (doi:10.1016/j.jct.2016.07.032)

How the values were obtained:
[1] = xn = mol fraction of the nth substance listed; details: 101.3 kPa, Liquid; for speed of sound: Frequency=3 MHz, Sing-around technique in a fixed-path interferometer; for mass density: Vibrating tube method
[2] = refractive index (Na D-line) (dimensionless); xn = mol fraction of the nth substance listed; details: 101.3 kPa, Liquid, Standard Abbe refractometry

CCOc1ccccc1 [ethoxybenzene] + CN1CCCC1=O
Details | mass density, 298 K [kg/m3] | mass density, 303 K [kg/m3] | mass density, 308 K [kg/m3] | refractive index, 298 K | refractive index, 303 K | refractive index, 308 K | speed of sound, 298 K [m/s] | speed of sound, 303 K [m/s] | speed of sound, 308 K [m/s]
[1], x1 = 0.041 | 1023 | 1019 | 1015 | – | – | – | 1534 | 1515 | 1497
[1], x1 = 0.122 | 1018 | 1014 | 1010 | – | – | – | 1513 | 1495 | 1477
[1], x1 = 0.201 | 1013 | 1009 | 1005 | – | – | – | 1495 | 1477 | 1460
[1], x1 = 0.273 | 1008 | 1004 | 1000 | – | – | – | 1480 | 1462 | 1445
[1], x1 = 0.37 | 1001 | 997 | 993 | – | – | – | 1460 | 1443 | 1427
[1], x1 = 0.504 | 992 | 988 | 983 | – | – | – | 1437 | 1420 | 1403
[1], x1 = 0.628 | 983 | 979 | 975 | – | – | – | 1418 | 1400 | 1383
[1], x1 = 0.709 | 978 | 974 | 969 | – | – | – | 1406 | 1388 | 1370
[1], x1 = 0.822 | 971 | 966 | 962 | – | – | – | 1391 | 1372 | 1354
[1], x1 = 1 | 960 | 955 | 951 | – | – | – | 1369 | 1349 | 1329
[2], x1 = 0.041 | – | – | – | 1.469 | 1.468 | 1.466 | – | – | –
[2], x1 = 0.122 | – | – | – | 1.474 | 1.472 | 1.469 | – | – | –
[2], x1 = 0.201 | – | – | – | 1.478 | 1.475 | 1.473 | – | – | –
[2], x1 = 0.273 | – | – | – | 1.481 | 1.479 | 1.476 | – | – | –
[2], x1 = 0.37 | – | – | – | 1.485 | 1.483 | 1.48 | – | – | –
[2], x1 = 0.504 | – | – | – | 1.491 | 1.488 | 1.485 | – | – | –
[2], x1 = 0.628 | – | – | – | 1.495 | 1.492 | 1.489 | – | – | –
[2], x1 = 0.709 | – | – | – | 1.498 | 1.495 | 1.491 | – | – | –
[2], x1 = 0.822 | – | – | – | 1.501 | 1.498 | 1.495 | – | – | –
[2], x1 = 1 | – | – | – | 1.505 | 1.503 | 1.499 | – | – | –

CCOc1ccccc1 [ethoxybenzene] + CN(C)C=O
Details | mass density, 298 K [kg/m3] | mass density, 303 K [kg/m3] | mass density, 308 K [kg/m3] | refractive index, 298 K | refractive index, 303 K | refractive index, 308 K | speed of sound, 298 K [m/s] | speed of sound, 303 K [m/s] | speed of sound, 308 K [m/s]
[1], x1 = 0.031 | 946 | 941 | 936 | – | – | – | 1452 | 1432 | 1415
[1], x1 = 0.091 | 948 | 943 | 939 | – | – | – | 1443 | 1424 | 1406
[1], x1 = 0.153 | 950 | 945 | 941 | – | – | – | 1435 | 1415 | 1398
[1], x1 = 0.223 | 952 | 947 | 943 | – | – | – | 1427 | 1407 | 1389
[1], x1 = 0.304 | 954 | 949 | 945 | – | – | – | 1418 | 1398 | 1380
[1], x1 = 0.463 | 956 | 952 | 948 | – | – | – | 1403 | 1383 | 1365
[1], x1 = 0.556 | 957 | 953 | 949 | – | – | – | 1396 | 1376 | 1357
[1], x1 = 0.642 | 958 | 954 | 949 | – | – | – | 1390 | 1370 | 1350
[1], x1 = 0.8 | 959 | 955 | 950 | – | – | – | 1379 | 1360 | 1340
[1], x1 = 1 | 960 | 955 | 951 | – | – | – | 1369 | 1349 | 1329
[2], x1 = 0.031 | – | – | – | 1.431 | 1.43 | 1.427 | – | – | –
[2], x1 = 0.091 | – | – | – | 1.437 | 1.435 | 1.432 | – | – | –
[2], x1 = 0.153 | – | – | – | 1.442 | 1.44 | 1.437 | – | – | –
[2], x1 = 0.223 | – | – | – | 1.448 | 1.446 | 1.442 | – | – | –
[2], x1 = 0.304 | – | – | – | 1.455 | 1.452 | 1.449 | – | – | –
[2], x1 = 0.463 | – | – | – | 1.468 | 1.465 | 1.461 | – | – | –
[2], x1 = 0.556 | – | – | – | 1.475 | 1.471 | 1.468 | – | – | –
[2], x1 = 0.642 | – | – | – | 1.481 | 1.478 | 1.474 | – | – | –
[2], x1 = 0.8 | – | – | – | 1.493 | 1.489 | 1.485 | – | – | –
[2], x1 = 1 | – | – | – | 1.505 | 1.503 | 1.499 | – | – | –
